Measured values from patent US8633188B2, “Aminodihydrothiazine derivatives” (Shionogi & Co., Ltd., priority 2005, dated 2014).

Tests used:
[1] = molecular target: recombinant human BACE-1 protein (Homo sapiens (Human), UniProt P56817); experiment: Measurement of inhibition of β-secretase activity (fluorescence-quenched peptide substrate, time-resolved fluorescence); format: biochemical; conditions: recombinant human BACE-1 7.4 nM, substrate peptide 18 nM, pH 5.0, 3 h at 30° C.; same test as table 170
Chain of recombinant human BACE-1 protein (P56817 46-501): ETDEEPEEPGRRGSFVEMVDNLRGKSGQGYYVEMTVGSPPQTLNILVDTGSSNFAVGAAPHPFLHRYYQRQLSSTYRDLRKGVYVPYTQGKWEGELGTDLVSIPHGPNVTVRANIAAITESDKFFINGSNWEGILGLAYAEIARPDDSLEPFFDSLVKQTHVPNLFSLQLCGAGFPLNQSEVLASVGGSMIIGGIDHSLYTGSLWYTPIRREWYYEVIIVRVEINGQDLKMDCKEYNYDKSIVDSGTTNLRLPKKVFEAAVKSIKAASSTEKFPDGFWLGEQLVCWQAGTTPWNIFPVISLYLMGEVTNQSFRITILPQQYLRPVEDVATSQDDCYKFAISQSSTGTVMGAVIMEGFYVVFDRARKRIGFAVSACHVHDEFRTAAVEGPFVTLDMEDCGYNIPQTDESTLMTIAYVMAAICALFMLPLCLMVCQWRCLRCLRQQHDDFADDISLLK
Experimental: Zero point five μL of the test compounds (dissolved in N,N′-dimethylsulfoxide) were incubated with 48.5 μL of the fluorescence-quenched peptide substrate solution (Biotin-XSEVNLDAEFRHDSGC-Eu: X=εe-amino-n-capronic acid,Eu=Europium cryptate) and 1 μL of recombinant human BACE-1 protein (R&D systems) for 3 h at 30° C. in the 96 well half-area plate (black color plate,Costar). The substrate peptide was synthesized by reacting with Biotin-XSEVNLDAEFRHDSGC (Peptide Institute) and Cryptate TBPCOOH mono SMP (CIS bio international). […] The enzymatic reaction was performed in sodium acetate buffer (50 mM sodium acetate (pH 5.0), 0.008% Triton X-100). After the reaction, a 50 μL of 8.0 μg/mL Streptavidin-XL665 (CIS bio international) dissolved in phosphate buffer (150 mM K2HPO4—KH2PO4 (pH 7.0), 0.008% Triton X-100, 0.8 M KF) was add to each well and incubated for 1 h at 30° C.

Row | Structure (SMILES) | melting point [°C] | IC50 [1] [µM]
1 | CC1(c2ccccc2)CCOC(N)=N1.Cl (stereo not drawn) | 194 to 195 | –
2 | CC1(c2cc(NC(=O)c3ccc(Cl)cc3)cc(S(C)(=O)=O)c2)CCSC(N)=N1 (stereo not drawn) [Compound 30] | – | < 100
3 | CC1(c2cccc(NC(=O)/C=C/c3cccc(F)c3)c2)CCSC(N)=N1 (stereo not drawn) [Compound 36] | – | < 100
4 | CC1(c2cc(NC(=O)c3ccc(Br)cc3)cc(S(C)(=O)=O)c2)CCSC(N)=N1 (stereo not drawn) [Compound 71] | – | < 100
5 | CC1(c2cccc(CCC(=O)Nc3ccccc3)c2)CCSC(N)=N1 (stereo not drawn) [Compound 732] | – | < 100
6 | CC1(c2cccc(NC(=O)c3ccc(C4CC4)cn3)c2)CCSC(N)=N1 (stereo not drawn) [Compound 738] | 181 to 183 | –
7 | CC1(c2cccc(NC(=O)c3ncc(Br)cn3)c2)CCSC(N)=N1 (stereo not drawn) [Compound 900] | 205 to 207 | < 100
8 | CC1(c2cccc(NC(=O)c3ccnnc3)c2)CCSC(N)=N1 (stereo not drawn) [Compound 1274] | – | < 100
